According to PubChem BioAssay (NCI):
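Where inhibition never reached the appropriate level, the endpoint shown equals the highest concentration tested. Otherwise, values were interpolated linearly from a five-concentration, 48-hour dose response in 96-well plates. Here, GI50 denotes the concentration required for 50% inhibition of growth. TGI is the concentration that stops growth completely.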

Each molecule was assayed on RXF 393 renal (assay: DTP human tumour cell line panel, 48 h).
In the case of `O=[N+]([O-])c1ccc(C=C2C(Cl)=C(Cl)C(Cl)=C2Cl)cc1`, the GI50 is reported as 1.81 µM and the TGI is reported as 3.39 µM.
With `Cc1ccc2c(n1)C(=O)c1[nH]c3ccccc3c1C2=O` the GI50 was 2.72 µM and the TGI was 55.4 µM.
With `O=C(OC(=O)n1ccc2ccccc21)n1ccc2ccccc21` the TGI was over 100 µM.
In the case of `C=CC(Br)(CBr)CCC(Cl)C(C)C` (stereo not given), the TGI is reported as 3.31 µM.
Molecule `Cc1nc(N)sc1-c1ccnc(Nc2ccc(N3CCOCC3)cc2)n1` has a GI50 of 0.938 µM and a TGI of 2.78 µM.
`CC(=O)Oc1cccc2c(/C=N/NC(N)=S)ncc(C)c12` gave a TGI of 23.7 µM.
`CC(=O)OC1CCC2(C)C3CCC4(C)C(c5ccc(=O)oc5)CC5OC54C3CCC2(O)C1` (stereo not given) was tested, and the TGI was 1.61 µM.
`Cc1cc(=O)[nH]c(NN2C(Cl)C(=O)C2c2cccc(O)c2)n1` (stereo not given) showed a TGI of over 100 µM.
With `Cc1ccc(S(=O)(=O)Oc2cc(-c3ccccc3)nc3ccccc23)cc1` the TGI was 11.9 µM.
`NNC(N)Nc1ccccc1` (stereo not given) was tested, and the TGI was over 100 µM.
`CC1CC=CC(O)C1` (stereo not given) showed a TGI of over 100 µM.
In the case of `c1ccc(N=C2SC(=NC3CCCCC3)N(C3CCCCC3)C2=Nc2ccccc2)cc1`, the TGI is reported as over 100 µM.
`O=NN(CCCl)C(=O)NC1CCSc2ccccc21` (stereo not given) was tested, and the TGI was over 100 µM.

The molecules below were run on EKVX NSCLC (assay: DTP human tumour cell line panel, 48 h).
Work on `O=[N+]([O-])c1ccc(C=C2C(Cl)=C(Cl)C(Cl)=C2Cl)cc1` yielded a GI50 of 3.67 µM and a TGI of over 100 µM.
Molecule `COc1ccccc1C1C(C(=O)O)=C(CO)Oc2cc3c(cc21)OCO3` (stereo not given) has a TGI of over 100 µM.
With `Cc1ccc2c(n1)C(=O)c1[nH]c3ccccc3c1C2=O` the GI50 was 1.22 µM and the TGI was 4.17 µM.
In the case of `O=C(OC(=O)n1ccc2ccccc21)n1ccc2ccccc21`, the TGI is reported as over 100 µM.
Work on `C=CC(Br)(CBr)CCC(Cl)C(C)C` (stereo not given) yielded a TGI of 21.8 µM.
`Cc1nc(N)sc1-c1ccnc(Nc2ccc(N3CCOCC3)cc2)n1` showed a GI50 of 4.02 µM and a TGI of over 100 µM.
`CC(=O)Oc1cccc2c(/C=N/NC(N)=S)ncc(C)c12` showed a TGI of 39.7 µM.
Work on `CC(=O)OC1CCC2(C)C3CCC4(C)C(c5ccc(=O)oc5)CC5OC54C3CCC2(O)C1` (stereo not given) yielded a TGI of 3.64 µM.
For `Cc1cc(=O)[nH]c(NN2C(Cl)C(=O)C2c2cccc(O)c2)n1` (stereo not given), the TGI was over 100 µM.
In the case of `Cc1ccc(S(=O)(=O)Oc2cc(-c3ccccc3)nc3ccccc23)cc1`, the TGI is reported as over 100 µM.
With `NNC(N)Nc1ccccc1` (stereo not given) the TGI was over 100 µM.
Molecule `CC1CC=CC(O)C1` (stereo not given) has a TGI of over 100 µM.
For `O=NN(CCCl)C(=O)NC1CCSc2ccccc21` (stereo not given), the TGI was 94.1 µM.

These molecules were tested on HOP-92 NSCLC (assay: DTP human tumour cell line panel, 48 h).
Molecule `O=[N+]([O-])c1ccc(C=C2C(Cl)=C(Cl)C(Cl)=C2Cl)cc1` has a GI50 of 2.05 µM and a TGI of 4.58 µM.
For `COc1ccccc1C1C(C(=O)O)=C(CO)Oc2cc3c(cc21)OCO3` (stereo not given), the TGI was over 100 µM.
For `Cc1ccc2c(n1)C(=O)c1[nH]c3ccccc3c1C2=O`, the GI50 was 2.92 µM and the TGI was 29 µM.
Molecule `O=C(OC(=O)n1ccc2ccccc21)n1ccc2ccccc21` has a TGI of over 100 µM.
With `C=CC(Br)(CBr)CCC(Cl)C(C)C` (stereo not given) the TGI was 4.72 µM.
Molecule `CC(=O)Oc1cccc2c(/C=N/NC(N)=S)ncc(C)c12` has a TGI of 32.9 µM.
`CC(=O)OC1CCC2(C)C3CCC4(C)C(c5ccc(=O)oc5)CC5OC54C3CCC2(O)C1` (stereo not given) was tested, and the TGI was 7.59 µM.
`Cc1cc(=O)[nH]c(NN2C(Cl)C(=O)C2c2cccc(O)c2)n1` (stereo not given) gave a TGI of over 100 µM.
`Cc1ccc(S(=O)(=O)Oc2cc(-c3ccccc3)nc3ccccc23)cc1` showed a TGI of 22.9 µM.
`NNC(N)Nc1ccccc1` (stereo not given) showed a TGI of over 100 µM.
`CC1CC=CC(O)C1` (stereo not given) was tested, and the TGI was over 100 µM.
`O=NN(CCCl)C(=O)NC1CCSc2ccccc21` (stereo not given) was tested, and the TGI was over 100 µM.

The molecules below were run on HL-60(TB) leukemia (assay: DTP human tumour cell line panel, 48 h).
With `COc1ccccc1C1C(C(=O)O)=C(CO)Oc2cc3c(cc21)OCO3` (stereo not given) the TGI was over 100 µM.
`Cc1ccc2c(n1)C(=O)c1[nH]c3ccccc3c1C2=O` was tested, and the GI50 was 2.67 µM and the TGI was 9.43 µM.
Molecule `O=C(OC(=O)n1ccc2ccccc21)n1ccc2ccccc21` has a TGI of over 100 µM.
`C=CC(Br)(CBr)CCC(Cl)C(C)C` (stereo not given) was tested, and the TGI was 2.38 µM.
Molecule `Cc1nc(N)sc1-c1ccnc(Nc2ccc(N3CCOCC3)cc2)n1` has a GI50 of 1.99 µM and a TGI of 6.08 µM.
Work on `CC(=O)Oc1cccc2c(/C=N/NC(N)=S)ncc(C)c12` yielded a TGI of over 100 µM.
`CC(=O)OC1CCC2(C)C3CCC4(C)C(c5ccc(=O)oc5)CC5OC54C3CCC2(O)C1` (stereo not given) showed a TGI of 1.48 µM.
Molecule `Cc1cc(=O)[nH]c(NN2C(Cl)C(=O)C2c2cccc(O)c2)n1` (stereo not given) has a TGI of 29.8 µM.
`Cc1ccc(S(=O)(=O)Oc2cc(-c3ccccc3)nc3ccccc23)cc1` gave a TGI of 6.88 µM.
Work on `NNC(N)Nc1ccccc1` (stereo not given) yielded a TGI of over 100 µM.
`CC1CC=CC(O)C1` (stereo not given) was tested, and the TGI was over 100 µM.
Molecule `c1ccc(N=C2SC(=NC3CCCCC3)N(C3CCCCC3)C2=Nc2ccccc2)cc1` has a TGI of over 100 µM.
In the case of `O=NN(CCCl)C(=O)NC1CCSc2ccccc21` (stereo not given), the TGI is reported as 48.7 µM.

These molecules were tested on K-562 leukemia (assay: DTP human tumour cell line panel, 48 h).
With `O=[N+]([O-])c1ccc(C=C2C(Cl)=C(Cl)C(Cl)=C2Cl)cc1` the GI50 was 3.68 µM and the TGI was over 100 µM.
`COc1ccccc1C1C(C(=O)O)=C(CO)Oc2cc3c(cc21)OCO3` (stereo not given) was tested, and the TGI was over 100 µM.
With `Cc1ccc2c(n1)C(=O)c1[nH]c3ccccc3c1C2=O` the GI50 was 3.14 µM and the TGI was over 100 µM.
In the case of `O=C(OC(=O)n1ccc2ccccc21)n1ccc2ccccc21`, the TGI is reported as over 100 µM.
Molecule `C=CC(Br)(CBr)CCC(Cl)C(C)C` (stereo not given) has a TGI of 5.4 µM.
Work on `Cc1nc(N)sc1-c1ccnc(Nc2ccc(N3CCOCC3)cc2)n1` yielded a GI50 of 1.6 µM and a TGI of over 100 µM.
Molecule `CC(=O)Oc1cccc2c(/C=N/NC(N)=S)ncc(C)c12` has a TGI of over 100 µM.
In the case of `CC(=O)OC1CCC2(C)C3CCC4(C)C(c5ccc(=O)oc5)CC5OC54C3CCC2(O)C1` (stereo not given), the TGI is reported as 24 µM.
Work on `Cc1cc(=O)[nH]c(NN2C(Cl)C(=O)C2c2cccc(O)c2)n1` (stereo not given) yielded a TGI of over 100 µM.
`Cc1ccc(S(=O)(=O)Oc2cc(-c3ccccc3)nc3ccccc23)cc1` was tested, and the TGI was 34.8 µM.
In the case of `NNC(N)Nc1ccccc1` (stereo not given), the TGI is reported as over 100 µM.
Molecule `CC1CC=CC(O)C1` (stereo not given) has a TGI of over 100 µM.
`c1ccc(N=C2SC(=NC3CCCCC3)N(C3CCCCC3)C2=Nc2ccccc2)cc1` showed a TGI of over 100 µM.
`O=NN(CCCl)C(=O)NC1CCSc2ccccc21` (stereo not given) was tested, and the TGI was over 100 µM.

The molecules below were run on SN12C renal (assay: DTP human tumour cell line panel, 48 h).
`O=[N+]([O-])c1ccc(C=C2C(Cl)=C(Cl)C(Cl)=C2Cl)cc1` showed a GI50 of 3.02 µM and a TGI of over 100 µM.
